Results as given in patent publication US8716334B2, “Substituted cyclohexylidene-ethylidene-octahydro-indene compounds” (Ben Gurion University of the Negev Research and Development …, priority 2008, dated 2014).
“Also recorded” adds a separate entry of the source.

What was measured:
HT-29, MCF-7, and LNCaP = assay: Activity against cell lines of human origin; assay type: cell-based
[1] = Calcium metabolic model in rats; assay type: in vivo; details: 20 ng daily for six days
Description: The clinical use of vitamin D3 as an anti-cancer agent is limited by its toxicity and concerns the possible development of hypercalcemia or hypercalciuria in treated patients. The calcium levels in rat blood, and the total daily secretion of calcium in rat urine were evaluated following daily treatments of 20 ng of vitamin D3, calcipotriene or BGP-15 for six days as shown in FIG. 15.

LNCaP cells = assay: MTT viability assay in LNCaP cells; assay type: cell-based, human; details: 1 or 5 μmol/L, 3 to 6 days
Description: (§1) LNCaP and MCF-7 cells were plated in 96-well plates and treated with 1 or 5 μmol/L test substances for 3 to 6 days. Cell viability following treatments was assayed by MTT. All experiments were conducted at least twice, and weighted results from all experiments are shown. *p<0.005 of BGP-15 relative to vitamin D3, **p<0.001 of BGP-15 relative to vitamin D3 and to calcipotriene.
(§2) LNCaP and MCF-7 cell-lines are widely used models for human prostate and mammary carcinomas respectively. Following BGP-15 purification and structural elucidation (FIG. 12), the effect of calcipotriene and BGP-15 on the viability of both LNCaP and MCF-7 cells was tested in-vitro by using the MTT assay, and was compared with the effect obtained by vitamin D3 (calcitriol).

[2] = tested on: HT-29 human colon cancer cells; assay: In vivo anti-tumor activity, HT-29 tumors in nude mice; details: for tumor size relative to controls at 30 days after cancer cell injection / size of tumors versus vehicle-treated control mice: HT-29 sc in nude mice; for tumor size relative to controls at 30 days after cancer cell injection: 2 μg/kg ip; for size of tumors versus vehicle-treated control mice: 2 μg/kg ip from day 20; for weight loss or observable adverse effects: nude mice, 2 μg/kg ip three times per week
Description: In vivo anti-tumor activity of the novel derivatives of calcipotriol: Experiments were carried out to determine the ability of BGP-13 and BGP-15 to inhibit the growth of human tumor cells in vivo. […] Nude mice received a subcutaneous (sc) injection of HT-29 human colon cancer cells. At various time intervals after the administration of the tumor cells, the mice received three times per week intraperitoneal injections of BGP-13 and BGP-15 at a dose of 2 μg/kg. […] In one experiment 12 nude mice, which received a s.c. injection of HT-29, were divided into three groups. Starting from day 20 after tumor injection, 2 groups of the mice received ip injections of BGP-13 and BGP-15 respectively. […] At 30 days after cancer cell injection, the tumors in the treated group were half the size of the tumors in controls (FIG. 14).

MCF-7 cells = assay: MTT viability assay in MCF-7 cells; assay type: cell-based, human; details: MCF-7, 1 or 5 μmol/L, 3 to 6 days
Description: as §1, §2

[3] = tested on: LNCaP human prostate carcinoma cell line; assay: Neutral-Red viability assay in LNCaP cells; assay type: cell-based; details: for antiproliferative effect (viability assay): 30 μM, 24 hours
Description: (§3) Cell culture: The following human cell lines (1) LNCaP—human prostate carcinoma cell line (2) MCF-7—human breast carcinoma cell line, and (3) GA—human melanoma cell line (3) HaCaT—immortalizes normal human skin keratinocytes were tested. Cells were inoculated in RPMI 1640 (LNCaP and GA) or Dulbecco modified eagle medium-DMEM (MCF-7 and HaCaT) supplemented with 10% heat inactivated fetal calf serum, 200 μM L-glutamine, 10 units/ml Penicillin and 10 μgr/ml Streptomycin. The cells were kept at 37° C. in a 5% CO2 humidified atmosphere.
(§4) The direct effect of the compound compared to free calcipotriene and vitamin D3 in the viability and proliferation level of cultured cells was assessed in vitro using cultured Cells. The cells were inoculated in 0.2 ml fresh medium. After 24 at 37° C. in a 5% CO2 humidified atmosphere, the medium was replaced with a fresh medium containing 0.5% ethanol and 30, 5, 1 and 0.1 μM test substance. Medium containing 0.5% ethanol without test compounds was used for the control cells. Cell growth and proliferation was assayed by Neutral-Red assay (evaluated by measuring the absorbance of the dye following 3 hours incubation, in 540 nm) at the stated times.

[4] = tested on: MCF-7 human breast carcinoma cell line; assay: Neutral-Red viability assay in MCF-7 cells; assay type: cell-based; details: MCF-7, 30 μM, 24 hours
Description: as §3, §4

[5] = Stability in the external medium; assay type: in vitro ADME; details: relative to CPT
Description: (§5) External and internal fractions of HaCaT cultures (0.5×10^6, 1×10^6, 3×10^6, 5×10^6 and 9.7×10^6 cells) were analyzed by HPLC.

HaCaT keratinocytes = assay: Cellular entry into HaCaT keratinocytes by HPLC; assay type: in vitro ADME, human; details: for entry into keratinocytes: HaCaT cultures, HPLC of external and internal fractions; for cell internalization normalized per cell: 0.5×10^6 to 9.7×10^6 cells, data not shown
Description: as §5

[6] = tested on: HaCaT immortalizes normal human skin keratinocytes; assay: Neutral-Red viability assay in HaCaT cells; assay type: cell-based
Description: as §3, §4

p21^WAF1 = assay: Western blot of p21 expression in LNCaP cells; assay type: cell-based, human; details: 100 nM, 48 hours
Description: Cells were incubated for 5 minutes at room temperature in 100 μl of 1% SDS lysis buffer. Samples were then collected into eppendorfs, incubated for 10 minutes at 100° C., and centrifuged at 14,000 rpm for 10 minutes. Supernatants were transferred into new tubes and pellets were discarded. Determination of protein concentration was conducted using the Bradford assay. […] protein of each sample was loaded on PVDF membranes and incubated with anti p21 antibody (Santa Cruz Biotechnology, Santa Cruz, Calif., U.S.A).

HaCaT cells = assay: MTT and NR viability assays for HaCaT cells (FIG. 7); assay type: cell-based, human; parameters: dose or concentration left out as unconfirmed; details: (for 24 hours)
Description: FIG. 7 is a bar graph showing the results of a MTT and NR viability assays for HaCaT cells treated with 30 µM (for 24 hours) of 1α,25(OH)2 vitamin D3, calcipotriol (CPT), and BGP-13.
Viability of HaCaT cells in the presence of three vitamin D3 derivatives, 1α,25(OH)2 D3 (calcitriol), and BGP-013 was studied by MTT assay.

[7] = CPT metabolite in rat skin
Text: LC/MS analysis has confirmed that the metabolite peak appeared at BGP-13's retention time was indeed this derivative (FIG. 10). […] The formation of reduced levels of this metabolite is probably due to the poor penetration of calcipotriol into the skin. Therefore, intracellular BGP-13 is an […] product of the internalized CPT with reactive oxygen species (ROS) such as singlet oxygen. This metabolic pathway of calcipotriol may have a role in scavenging ROS and reducing inflammatory processes in cells and tissue.

[8] = Reaction with singlet oxygen (endoperoxide-naphthalene trapper); details: room temperature, product detected by TLC, LC-MS
Text: The trapper, endoperoxide-naphthalene, was converted into naphthalene and released exclusively singlet oxygen at room temperature (FIG. 11). Combining calcipotriol with the endoperoxide has created a new product that was first detected by TLC as BGP-13. LC-MS has confirmed that this indeed is the substance.

Row | hypercalcemia (calcium levels in rat blood) [1] | Structure (SMILES) | activity against cell lines of human origin (HT-29, MCF-7, and LNCaP) | hypercalciuria (total daily secretion of calcium in rat urine) [1] | cell survival (MTT) (LNCaP cells) | tumor size relative to controls at 30 days after cancer cell injection [2] | size of tumors versus vehicle-treated control mice [2] | weight loss or observable adverse effects [2] | cell survival (MTT) (MCF-7 cells) | antiproliferative effect (viability assay) [3] | entry into keratinocytes (HaCaT keratinocytes) | cell internalization normalized per cell (HaCaT keratinocytes; HaCaT) | p21 expression (p21^WAF1) | also measured
1 | do not generate hypercalcemia | C=C1/C(=C\C=C2/CCC[C@@]3(C)C2CC[C@@H]3C(C)/C=C/C(Cl)C2CC2)C[C@@H](O)C[C@@H]1O (some centres unmarked) [Calci-Cl] | active at least against three cell lines | do not generate hypercalcemia or hypercalciuria | reduce prostate and breast cancer cells survival | half the size | significantly smaller | did not cause either weight loss or any observable adverse effects | reduce prostate and breast cancer cells survival | – | – | – | – | –
2 | – | C=C1/C(=C\C=C2/CCC[C@@]3(C)C2CC[C@@H]3C(C)C2C=C(C3CC3)OO2)C[C@@H](O)C[C@@H]1O (some centres unmarked) [Compound II, Calci-dioxole] | active at least against three cell lines | – | – | half the size | significantly smaller | did not cause either weight loss or any observable adverse effects | – | much more potent antiproliferative effect on the LNCaP and MCF-7 cancer cells as compared to HaCaT cells; also recorded: significantly high efficacy; also recorded: much more potent antiproliferative effect on LNCaP and MCF-7 cancer cells than on HaCaT cells; also recorded: much more potent antiproliferative effect on LNCaP cells than calcipotriol alone | approximately 60 % of the applied substance | constant even at a high cell density | not mediated through increased p21 expression | mortality (viability assay) ([3]; 5 μM, 6 days): higher mortality than cells exposed to calcipotriol alone; antiproliferative effect (viability assay) ([3]; listed as BGP-13): much more potent antiproliferative effect on LNCaP cells than calcipotriol alone; antiproliferative effect (viability assay) [4]: much more potent antiproliferative effect on the LNCaP and MCF-7 cancer cells as compared to HaCaT cells; also recorded: much more potent antiproliferative effect on LNCaP and MCF-7 cancer cells than on HaCaT cells; stability in the medium [5]: significantly less stable in the medium relative to CPT; intracellular permeation as fraction of the total quantity momentarily present in the cell culture (HaCaT keratinocytes; HaCaT): enhanced intracellular permeation increased its stability by preventing degradation in the medium; selectivity for carcinogenic versus non-carcinogenic cells ([6]; HaCaT compared with cancer cell lines): more selective for carcinogenic cells; also recorded: might have a less potent effect on non-carcinogenic cells than on carcinogenic cells; potency of treatment (viability assay) ([6]; HaCaT, 5 μM and 1 μM, 6 days): less potent than treatments with calcitriol and calcipotriol; inhibition of proliferation of keratinocytes (MTT assay) (HaCaT cells): inhibited the proliferation of the keratinocytes at the same rate and extent as CPT or calcitriol
3 | do not generate hypercalcemia | C=C1/C(=C\C=C2/CCC[C@]3(C)[C@@H]([C@H](C)/C=C/[C@@H](O)C4CC4)CC[C@@H]23)C[C@@H](O)C[C@@H]1O [calcipotriol, reference compound] | – | do not generate hypercalcemia or hypercalciuria | reduce prostate and breast cancer cells survival | – | – | – | reduce prostate and breast cancer cells survival | less efficacious; also recorded: relatively lower anticancer effect | comparable | constant even at a high cell density | increased p21 expression | metabolite BGP-13 in rat skin [7]: found at low levels; action towards singlet oxygen [8]: antioxidant/quencher of singlet oxygen
4 | – | C=C1/C(=C\C=C2/CCC[C@]3(C)[C@@H]([C@H](C)CCCC(C)(C)O)CC[C@@H]23)C[C@@H](O)C[C@@H]1O [calcitriol] | – | – | reduce prostate and breast cancer cells survival | – | – | – | reduce prostate and breast cancer cells survival | less efficacious; also recorded: relatively lower anticancer effect | – | – | increased p21 expression | –
